Assay results taken from publication PMC5874719, “A π-Halogen Bond of Dibenzofuranones with the Gatekeeper Phe113 in Human Protein Kinase CK2 Leads to Potent Tight Binding Inhibitors” (Pharmaceuticals, 2018).

Key:
[1] = system: caspases 3 and 7 in LNCaP cells; experiment: Caspase-Glo 3/7 assay; assay type: cell-based, human; conditions: for caspase 3/7 activity, maximum obtained: 25 or 50 µM, 24 or 48 h; for caspase 3/7 activity: 50 µM, 48 h
Description: Reducing the activity of CK2 by the inhibitors is supposed to overcome the antiapoptotic effect of the enzyme and cells are induced to undergo apoptosis. […] In consequence, we analyzed in the next experiments whether the cells were killed by apoptosis. Hallmark of apoptosis is the activation of the key effector caspases 3 and 7 which ends in the cleavage of poly (ADP ribose) polymerase PARP1. The full-length PARP1 is cleaved by the caspases to an 89 and a 24 kDa fragment. These events of late apoptotic signaling were analyzed in ARPE19 and LNCaP cells grown in the presence and in the absence of dibenzofurans. Inhibitor concentrations of 25 and 50 µM were used and were applied for 24 and 48 h. In cell lysates of LNCaP and ARPE19 cells the activity of caspases 3 and 7 was determined subsequently by a luminescence based assay (Figure 6A).
(A) ARPE19 or LNCaP cells were treated with DMSO as control (0 μM) or with 25 or 50 μM 4b, 4a or 5 for 24 or 48 h. Activity of caspases 3 and 7 was determined using the luminescent Caspase-Glo® 3/7 assay according to the technical bulletin of the manufacturer. Median relative light units (RLU) + standard deviation from at least three independent experiments are shown in the bar graph. (B) Cells were treated as described before. 75 μg cell extract was separated in a 10% SDS polyacrylamide gel and analyzed in a Western blot analysis with a rabbit polyclonal antibody against PARP1. + is a positive control for PARP cleavage.
The activity of the apoptotic key effector caspases 3 and 7 in cell extracts was determined using the Caspase-Glo 3/7 assay according to the protocol of the manufacturer (Promega, Mannheim, Germany).

[2] = molecular target: T1, surface displayed CK2α + CK2β (CK2α containing human CK2 holoenzyme) (Homo sapiens, UniProt P68400); experiment: whole-cell CK2 selectivity assay, holoenzyme surface displayed on E. coli; assay type: biochemical; conditions: 600 µM ATP, 100 µM substrate peptide
T1 construct: surface-display (autodisplay) carrier protein; made in house; host or cells: Escherichia coli BL21 (DE3), enzyme left on the cell surface
T1 sequence (P68400 whole entry): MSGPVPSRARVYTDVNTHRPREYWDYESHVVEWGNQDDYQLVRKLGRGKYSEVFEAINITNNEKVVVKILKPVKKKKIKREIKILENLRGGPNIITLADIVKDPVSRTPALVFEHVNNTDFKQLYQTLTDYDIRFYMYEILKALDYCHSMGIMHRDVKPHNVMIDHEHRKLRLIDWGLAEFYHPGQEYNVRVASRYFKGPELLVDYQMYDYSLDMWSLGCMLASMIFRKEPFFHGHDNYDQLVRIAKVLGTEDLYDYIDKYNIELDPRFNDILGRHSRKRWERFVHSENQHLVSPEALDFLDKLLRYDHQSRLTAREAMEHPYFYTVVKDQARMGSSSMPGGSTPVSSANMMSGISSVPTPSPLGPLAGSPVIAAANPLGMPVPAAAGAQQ
T1 sequence (P67870 whole entry partner): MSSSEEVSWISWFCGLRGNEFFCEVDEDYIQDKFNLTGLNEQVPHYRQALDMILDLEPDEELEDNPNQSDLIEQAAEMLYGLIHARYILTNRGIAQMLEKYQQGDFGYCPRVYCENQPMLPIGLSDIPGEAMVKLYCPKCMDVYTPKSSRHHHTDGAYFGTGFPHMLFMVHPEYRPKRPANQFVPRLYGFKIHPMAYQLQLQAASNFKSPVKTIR
Description: We recently reported a whole cell CK2 activity assay, which can be used for testing the selectivity of compounds towards CK2α and CK2α’ [47]. It is based on the surface display of the human CK2 subunits, either α or α’ together with β on E. coli, were they are able to form a functional tetrameric holoenzymes, either ααββ or α’α’ββ, depending on which α isoform has been expressed. This technique was used to investigate whether 4a or 5 have preference to one of the two catalytic isoforms of CK2.
For this purpose, their IC50 were determined following the protocol of the recently described whole-cell CK2 selectivity assay. In summary, 78 µL of a bacterial suspension of Escherichia coli BL21 (DE3) either surface displaying CK2α + CK2β or CK2α’ + CK2β in kinase buffer (50 mM Tris/HCl, pH 8.5, 100 mM NaCl, 10 mM MgCl2 and 1 mM DTT) were supplemented with 2 µL of the test compound dissolved in DMSO and incubated at 37 °C and 400 rpm for 10 min. CK2 reactions were started by the addition of 120 µL of assay buffer (25 mM Tris/HCl, pH 7.5, 150 mM NaCl, 5 mM MgCl2, 1 mM DTT, 167 µM substrate peptide […] and 1 mM ATP) leading to a total reaction volume of 200 µL with final concentrations of 100 µM for the substrate peptide and 600 µM for ATP. […] After the samples were incubated for 120 min at 37 °C and 400 rpm, the CK2 presenting bacteria were removed by centrifugation (3850× g, 5 min, 4 °C). The obtained supernatants were transferred to the wells of a 96 well-microplate and finally supplemented with EDTA to a concentration of 12.5 mM to definitely stop the enzymatic reactions. The samples were then subjected to a Beckman Coulter pa800 plus (Krefeld, Germany) CE system and analyzed for phosphorylation of the substrate peptide. Samples containing pure DMSO served as controls for 0% inhibition and samples additionally lacking ATP served as controls for 100% inhibition. […] IC50 values were calculated from the resulting dose-response curves.
CK2α’ + CK2β (right column).
Mean values ± standard errors of
the means (SEM) are shown. […]

IC50 [2]	SMILES	caspase 3/7 activity, maximum obtained [1]	caspase 3/7 activity [1]
62 nM	COc1ccc(N/C=C2\C(=O)CCc3c2oc2cc(Cl)c(O)c(Cl)c32)cc1 [4a, 7,9-dichloro-1,2-dihydro-8-hydroxy-4-[(4-methoxyphenylamino)methylene]dibenzo[b,d]furan-3(2H)-one]	17,000 RLU	
877 nM	Cc1ccc(NC=C2C(=O)CCc3c2oc2c(Cl)c(Cl)c(O)cc32)cc1 [4b, 6,7-dichloro-1,4-dihydro-8-hydroxy-4-[(4-methylphenylamino)methylene]dibenzo[b,d]furan-3(2H)-one]		> 50,000 RLU
98 nM	COc1ccc(/N=C/c2c(O)ccc3c2oc2cc(Cl)c(O)c(Cl)c23)cc1 [compound 5, (E)-1,3-dichloro-6-[(4-methoxyphenylimino)methyl]dibenzo[b,d]furan-2,7-diol]	55,000 RLU	> 50,000 RLU
